Measured values reported in paper PMC3058535 (International Journal of Nanomedicine, 2011).

Target: integrin αvβ3 (Homo sapiens, UniProt P05106+P06756)
Experiment: Competitive ELISA vs NS–RGDfK
Type: binding
Details: NS–RGDfK 0.5 OD; starting 50 μM

| Compound | competition with NS–RGDfK for binding to integrin αvβ3 |
| --- | --- |
| cyclo-(Arg-Ala-Asp- D-Phe-Lys) (head to tail) [RADfK] | did not have any detectable competition with NS–RGDfK |
| N=C(N)NCCC[C@@H]1NC(=O)[C@H](CCCCN)NC(=O)[C@@H](Cc2ccccc2)NC(=O)[C@H](CC(=O)O)NC(=O)CNC1=O [RGDfK, cyclo(Arg-Gly-Asp-D-Phe-Lys)] | did compete with NS–RGDfK for binding to the integrin |
| CC(C)(CN)CNC(=O)NCCS(=O)(=O)N[C@@H](CNC(=O)c1ccc(OCCNC2=NCCCN2)cc1)C(=O)O.Cl [IAC, 4-[2-(3,4,5,6-tetrahydropyrimidin-2-ylamino)-ethyloxy]benzoyl-2-(S)-[N-(3-aminoneopenta-1-carbamyl)]-aminoethylsulfonylamino-h-alanine hydrochloride] | did compete with NS–RGDfK for binding to the integrin |
